Measurements as given in the supplement of paper PMC10307832.

How the values were obtained:
Assay in all cases: relative viability (nuclei count vs DMSO), 5 days (fraction); higher = more cells survive
Vismodegib + Vorinostat = compound: CS(=O)(=O)c1ccc(C(=O)Nc2ccc(Cl)c(-c3ccccn3)c2)c(Cl)c1 [Vismodegib] + O=C(CCCCCCC(=O)Nc1ccccc1)NO [Vorinostat] (partner 1 µM)
How it was run: (§1)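 Nuclei were stained with Hoechst during a one-step fixation (final 0.05% Triton X-100, 1% formaldehyde, 1 ug/ml Hoechst) carried out 5 days after dosing, then counted on 4× images. The cells, lung cancer lines in 1536-well plates, had been dosed by pin tool the day after seeding with one drug alone or a fixed anchor-drug dose plus five library-drug doses (not always all listed) in √10 steps. Relative viability is the nuclei count in treated wells divided by that in vehicle wells, and each value is the median of duplicate plates.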

Ruxolitinib + Tozasertib = compound: N#CC[C@H](C1CCCC1)n1cc(-c2ncnc3[nH]ccc23)cn1 [Ruxolitinib] + Cc1cc(Nc2cc(N3CCN(C)CC3)nc(Sc3ccc(NC(=O)C4CC4)cc3)n2)n[nH]1 [Tozasertib] (partner 0.1 µM)
How it was run: as §1

Ruxolitinib + Dasatinib = compound: N#CC[C@H](C1CCCC1)n1cc(-c2ncnc3[nH]ccc23)cn1 [Ruxolitinib] + Cc1nc(Nc2ncc(C(=O)Nc3c(C)cccc3Cl)s2)cc(N2CCN(CCO)CC2)n1 [Dasatinib] (partner 0.075 µM)
How it was run: as §1

Vismodegib + Alpelisib = compound: CS(=O)(=O)c1ccc(C(=O)Nc2ccc(Cl)c(-c3ccccn3)c2)c(Cl)c1 [Vismodegib] + Cc1nc(NC(=O)N2CCC[C@H]2C(N)=O)sc1-c1ccnc(C(C)(C)C(F)(F)F)c1 [Alpelisib] (partner 2 µM)
How it was run: as §1

| Cell Line | relative viability (Vismodegib + Vorinostat; first compound 0.08 µM) | relative viability (Vismodegib + Vorinostat; first compound 0.253 µM) | relative viability (Vismodegib + Vorinostat; first compound 0.8 µM) | relative viability (Vismodegib + Vorinostat; first compound 2.53 µM) | relative viability (Vismodegib + Vorinostat; first compound 8 µM) | relative viability (Ruxolitinib + Tozasertib; first compound 0.08 µM) | relative viability (Ruxolitinib + Tozasertib; first compound 0.253 µM) | relative viability (Ruxolitinib + Tozasertib; first compound 0.8 µM) | relative viability (Ruxolitinib + Tozasertib; first compound 2.53 µM) | relative viability (Ruxolitinib + Tozasertib; first compound 8 µM) | relative viability (Ruxolitinib + Dasatinib; first compound 0.08 µM) | relative viability (Ruxolitinib + Dasatinib; first compound 0.253 µM) | relative viability (Ruxolitinib + Dasatinib; first compound 0.8 µM) | relative viability (Ruxolitinib + Dasatinib; first compound 2.53 µM) | relative viability (Ruxolitinib + Dasatinib; first compound 8 µM) | relative viability (Vismodegib + Alpelisib; first compound 0.08 µM) | relative viability (Vismodegib + Alpelisib; first compound 0.253 µM) | relative viability (Vismodegib + Alpelisib; first compound 0.8 µM) | relative viability (Vismodegib + Alpelisib; first compound 2.53 µM) | relative viability (Vismodegib + Alpelisib; first compound 8 µM) |
| --- | --- | --- | --- | --- | --- | --- | --- | --- | --- | --- | --- | --- | --- | --- | --- | --- | --- | --- | --- | --- |
| LU99A | 0.409 | 0.469 | 0.498 | 0.469 | 0.509 | 0.296 | 0.26 | 0.298 | 0.303 | 0.316 | 0.628 | 0.607 | 0.514 | 0.429 | 0.38 | 0.617 | 0.544 | 0.474 | 0.499 | 0.556 |
| NCI-H1915 | 0.491 | 0.488 | 0.497 | 0.434 | 0.534 | 0.462 | 0.434 | 0.464 | 0.398 | 0.419 | 0.33 | 0.305 | 0.319 | 0.217 | 0.204 | 0.996 | 1.09 | 1.07 | 1.03 | 1.12 |
| EMC-BAC-2 | 0.515 | 0.302 | 0.418 | 0.476 | 0.422 | 0.292 | 0.288 | 0.279 | 0.262 | 0.236 | 0.321 | 0.283 | 0.308 | 0.275 | 0.219 | 0.716 | 0.763 | 0.819 | 0.732 | 0.754 |
| 201T | 0.956 | 0.952 | 0.973 | 0.977 | 0.924 | 1.11 | 1.19 | 1.17 | 1.21 | 1.11 | 0.571 | 0.593 | 0.67 | 0.558 | 0.558 | 1.03 | 0.996 | 0.994 | 1.07 | 0.984 |
| NCI-H2228 | 1.03 | 0.719 | 0.589 | 0.751 | 0.574 | 0.32 | 0.33 | 0.257 | 0.314 | 0.208 | 0.399 | 0.457 | 0.484 | 0.401 | 0.198 | 0.643 | 0.952 | 0.606 | 0.622 | 0.758 |
| NCI-H1944 | 0.592 | 0.522 | 0.735 | – | 0.568 | 0.248 | 0.263 | 0.24 | 0.292 | 0.266 | 0.204 | 0.17 | 0.209 | 0.168 | 0.167 | 0.768 | 0.862 | 0.744 | 0.809 | 0.777 |
| NCI-H441 | 0.875 | – | 0.552 | 0.678 | 0.839 | 0.63 | 0.629 | 0.716 | 0.625 | 0.587 | 0.507 | 0.432 | 0.698 | 0.396 | 0.672 | 0.647 | 0.633 | 0.829 | 0.824 | 0.745 |
| NCI-H1437 | 0.824 | 0.756 | 0.806 | 0.732 | 0.804 | 0.457 | 0.39 | 0.406 | 0.413 | 0.422 | 0.294 | 0.363 | 0.354 | 0.458 | 0.236 | 0.972 | 0.901 | 1.06 | 0.961 | 0.987 |
| EPLC-272H | 0.398 | 0.368 | 0.49 | 0.329 | 0.509 | 0.25 | 0.407 | 0.241 | 0.345 | 0.264 | 0.399 | 0.402 | 0.42 | 0.243 | 0.134 | 0.894 | 0.888 | 0.872 | 1 | 0.931 |
